What was measured:
MIA PaCa-2 cells = experiment: Seahorse XF Real-Time ATP Rate Assay (FIG. 8A); type: cell-based; conditions: 6 h romidepsin then 12 h washout with or without 2 nM DMPatA
Description: FIG. 8A compares quantification of ATP production rates. Seahorse XF Real-Time ATP Rate Assay was performed under control conditions or after treatment with the combination and single agents. Treatment was for a total of 18 h (i.e., 6-hour romidepsin followed by 12-hour washout with 2 nM DMPatA (combo) or without (Romi alone)). FIG. 8A left panel—ATP production rate from mitochondrial respiration (Mito-ATP); FIG. 8A right panel—ATP production rate from glycolysis (Glyco-ATP). At least two biological replicate experiments with n=3 technical replicates were performed. Statistical significance was determined by one-way ANOVA using Tukey multiple comparison's test in the Prism software. *p value<0.01.
Because reprograming/augmentation of cellular metabolism by c-MYC is known to support oncogenesis, the Seahorse XF analyzer was used to assess the impact of the treatments on c-MYC-driven metabolism including ATP production, glycolysis, and mitochondrial oxidative phosphorylation (OXPHOS). Extracellular acidification rates, also known as proton efflux rate (PER), were measured for glycolysis and mitochondrial oxygen consumption rates (OCR) for OXPHOS. […]
Oxygen consumption rates (OCR) and extracellular acidification rates (ECAR) were measured using the XF96 Extracellular Flux analyzer (Seahorse Bioscience). […]

p-RPA = experiment: Immunoblot of phospho-RPA2 (FIG. 11A); type: cell-based; conditions: total 24 h (romidepsin 6 h + 18 h with/without 2 nM DMPatA)
Description: FIG. 11A compares immunoblots of p-RPA and p-CHK1 protein levels from whole cell extracts following treatment with the combination and romidepsin for a total of 24 h (i.e., romidepsin treatment was for 6 h followed by 18-hour incubation with 2 nM DMPatA (combo) or without (Romi alone)).
Having observed R-loop accumulation following treatment with the combination, it was hypothesized that hypertranscription, persistent hyperacetylation, and R-loop accumulation could increase the incidence of transcription replication conflicts, genome instability, and DNA damage and contribute to cell death. […]
Western blotting was carried out as previously described (Luchenko V L, Litman T, Chakraborty A R, et al. 65. Membranes were probed with primary antibodies: Phospho-Histone H2A.X (Ser139) (1:1000, Millipore Sigma #05-636), GAPDH (1:10000, Abcam #ab8245), c-Myc (1:1000, Abcam #ab32072), β-Actin (1:1000, Cell Signaling Technology (CST), #8457), Phospho-RPA32/RPA2 (Ser33) (1:1000, Cell Signaling Technology #10148), Phospho-Chk1 (Ser345) (1:1000, CST #2341), and secondary antibodies IRDye® 680RD Goat anti-Mouse and IRDye® 800CW Goat anti-Rabbit (both from LI-COR Biosciences). Signal quantification was performed using the Odyssey CLx imaging system (LI-COR Biosciences), capturing various exposures within the linear range with ImageStudio software V3.1 (LI-COR Biosciences).

Compound: C/C=C1\NC(=O)[C@H]2CSSCC/C=C/[C@H](CC(=O)N[C@H](C(C)C)C(=O)N2)OC(=O)[C@H](C(C)C)NC1=O [romidepsin]
- glycolytic ATP production (Glyco-ATP) (MIA PaCa-2 cells): reduced
- mitochondrial ATP production (Mito-ATP) (MIA PaCa-2 cells): reduced
- phospho-RPA2 (p-RPA): Accumulation
